Measurements from US20070264247A1, “Use of Human Lysozyme in Preparation of Medicine for Treating Acne” (priority 2004, published 2007).
In brackets after ≈: the same amount, converted by molar mass. Read-outs that look alike come from different tables or passages of the source.

What was measured:
Test in all cases: MIC by double agar dilution method, clinical isolates
Assay type in all cases: cell-based
Propionibacterium = tested on: Propionibacterium
Experimental: (§1) Strain: Pathogenic bacteria isolated from clinical laboratory collected from Sichuan, Beijing, 2002.4˜2003.9, assessed using the method of API in our laboratory.
(§2) Test the minimum inhibitory concentration (MIC) of the tested drug against the strains using the double agar dilution method. The tested drug was dissolved in sterile purified water and diluted properly. The drug-containing petri dishes were prepared by spiking 1 ml drug conclusion with melted 9 ml Tris —HCl agarose solid medium, using agar twofold dilution method and obtained the concentration of 4, 2, 1, 0.5, 0.25, 0.125, 0.06, 0.03 . . . 0.001 mg/ml. The strain solution of 10^5 CFU/ml was inoculated on the petri dishes using the multipoint inoculator, cultured for 8-10 h at 37° C., covered the petri dishes using melted 6 ml M-H Medium (50° C.) respectively, cultured for 10 h at 37° C. The minimal concentration of the drug-containing petri dishes which had no bacterium growth was the minimal inhibitory concentration (MIC).

Serratia marcescens = tested on: Serratia marcescens
Experimental: as §1, §2

Escherichia coli = tested on: Escherichia coli
Experimental: as §1, §2

Klebsiella pneumoniae = tested on: Klebsiella pneumoniae
Experimental: as §1, §2

Staphylococcus aureus = tested on: Staphylococcus aureus
Experimental: as §1, §2

[1] = tested on: Staphylococcu epidermidis
Experimental: as §1, §2

[2] = Serratia marcescens 2-31-8 (first line)
[3] = Serratia marcescens 2-31-8 (second line)
[4] = Serratia marcescens 2-31-8 (third line)
[5] = Escherichia coli 03-2-41, read-out: MIC
[6] = Escherichia coli 03-2-42, read-out: MIC
[7] = Escherichia coli 03-2-43, read-out: MIC
[8] = Escherichia coli 03-2-45, read-out: MIC
[9] = Escherichia coli 03-2-51, read-out: MIC
[10] = Escherichia coli 03-2-52, read-out: MIC
[11] = Escherichia coli 03-2-53, read-out: MIC
[12] = Escherichia coli 03-2-54, read-out: MIC
[13] = Escherichia coli 03-2-56, read-out: MIC
[14] = Escherichia coli 03-2-57, read-out: MIC
[15] = Escherichia coli 03-2-58, read-out: MIC
[16] = Staphylococcus aureus MRSA02-22, read-out: MIC
[17] = Staphylococcus aureus MRSA02-23
[18] = Staphylococcus aureus MRSA02-26
[19] = Staphylococcus aureus MRSA02-28
[20] = Staphylococcu epidermidis MRSE02-3
[21] = Staphylococcu epidermidis MRSE02-4
[22] = Staphylococcu epidermidis MRSE02-5
[23] = Staphylococcu epidermidis MRSE02-6
[24] = Staphylococcu epidermidis MRSE02-10
[25] = Staphylococcu epidermidis MRSE02-11
[26] = Staphylococcu epidermidis MRSE02-12
[27] = Staphylococcu epidermidis MRSE02-15
[28] = Staphylococcu epidermidis MRSE02-17
[29] = Staphylococcu epidermidis MRSE02-18
[30] = Staphylococcu epidermidis MRSE02-20
[31] = Staphylococcu epidermidis MRSE02-20-1
[32] = Staphylococcu epidermidis MRSE02-20-2
[33] = Staphylococcu epidermidis MRSE02-20-3
[34] = Staphylococcu epidermidis MRSE02-20-4
[35] = Staphylococcu epidermidis MRSE02-20-5
[36] = Staphylococcu epidermidis MRSE02-20-6
[37] = Staphylococcu epidermidis MRSE02-20-7
[38] = Staphylococcu epidermidis MRSE02-20-8
[39] = Staphylococcu epidermidis MRSE02-20-9
[40] = Staphylococcu epidermidis MRSE02-21
[41] = Staphylococcu epidermidis MRSE02-22
[42] = Staphylococcu epidermidis MRSE02-29
[43] = Staphylococcu epidermidis MssE25

CC[C@H]1OC(=O)[C@H](C)[C@@H](O[C@H]2C[C@@](C)(OC)[C@@H](O)[C@H](C)O2)[C@H](C)[C@@H](O[C@@H]2O[C@H](C)C[C@H](N(C)C)[C@H]2O)[C@](C)(OC)C[C@@H](C)C(=O)[C@H](C)[C@@H](O)[C@]1(C)O [CLA, Clarithromycin]
MIC (Propionibacterium; Propionibacterium 02-7-4): 2 µg/mL (≈ 2.67 µM) | MIC (Propionibacterium; Propionibacterium 02-7-5): < 1 µg/mL | MIC (Propionibacterium; Propionibacterium 02-7-6): 8 µg/mL (≈ 10.7 µM) | MIC (Propionibacterium; Propionibacterium 02-7-7): 32 µg/mL (≈ 42.8 µM) | MIC (Propionibacterium; Propionibacterium 02-7-9): 8 µg/mL (≈ 10.7 µM) | MIC (Propionibacterium; Propionibacterium 03-2-22): 1000 µg/mL (≈ 1340 µM) | MIC (Propionibacterium; Propionibacterium 03-2-30): > 1000 µg/mL | MIC (Propionibacterium; Propionibacterium 03-2-32): 8 µg/mL (≈ 10.7 µM) | MIC (Propionibacterium; Propionibacterium 03-2-33): > 1000 µg/mL | MIC (Propionibacterium; Propionibacterium 03-2-36): 250 µg/mL (≈ 334 µM) | MIC (Propionibacterium; Propionibacterium 03-2-37): > 1000 µg/mL | MIC (Propionibacterium; Propionibacterium 03-2-39): 500 µg/mL (≈ 668 µM) | MIC (Serratia marcescens; [2]): 8 µg/mL (≈ 10.7 µM) | MIC (Serratia marcescens; [3]): 8 µg/mL (≈ 10.7 µM) | MIC (Serratia marcescens; [4]): 16 µg/mL (≈ 21.4 µM) | MIC (Escherichia coli): 125 µg/mL (≈ 167 µM) | MIC (Escherichia coli; [5]): > 1000 µg/mL | MIC (Escherichia coli; [6]): 63 µg/mL (≈ 84.2 µM) | MIC (Escherichia coli; [7]): 16 µg/mL (≈ 21.4 µM) | MIC (Escherichia coli; [8]): 250 µg/mL (≈ 334 µM) | MIC (Escherichia coli; [9]): > 1000 µg/mL | MIC (Escherichia coli; [10]): > 1000 µg/mL | MIC (Escherichia coli; [11]): 30 µg/mL (≈ 40.1 µM) | MIC (Escherichia coli; [12]): > 1000 µg/mL | MIC (Escherichia coli; [13]): 16 µg/mL (≈ 21.4 µM) | MIC (Escherichia coli; [14]): 32 µg/mL (≈ 42.8 µM) | MIC (Escherichia coli; [15]): > 1000 µg/mL | MIC (Klebsiella pneumoniae; Klebsiella pneumoniae 02-6-14): 63 µg/mL (≈ 84.2 µM) | MIC (Klebsiella pneumoniae; Klebsiella pneumoniae 02-6-18): 500 µg/mL (≈ 668 µM) | MIC (Staphylococcus aureus; Staphylococcus aureus 02-19-5): >1000 µg/mL | MIC (Staphylococcus aureus; [16]): > 1000 µg/mL | MIC (Staphylococcus aureus; [17]): >1000 µg/mL | MIC (Staphylococcus aureus; [18]): >1000 µg/mL | MIC (Staphylococcus aureus; [19]): >1000 µg/mL | MIC [1, 20]: > 1000 µg/mL | MIC [1, 21]: 500 µg/mL (≈ 668 µM) | MIC [1, 22]: < 1 µg/mL | MIC [1, 23]: < 1 µg/mL | MIC [1, 24]: 1000 µg/mL (≈ 1340 µM) | MIC [1, 25]: < 1 µg/mL | MIC [1, 26]: 8 µg/mL (≈ 10.7 µM) | MIC [1, 27]: 1000 µg/mL (≈ 1340 µM) | MIC [1, 28]: 250 µg/mL (≈ 334 µM) | MIC [1, 29]: < 1 µg/mL | MIC [1, 30]: > 1000 µg/mL | MIC [1, 31]: < 1 µg/mL | MIC [1, 32]: > 1000 µg/mL | MIC [1, 33]: > 1000 µg/mL | MIC [1, 34]: > 1000 µg/mL | MIC [1, 35]: > 1000 µg/mL | MIC [1, 36]: > 1000 µg/mL | MIC [1, 37]: 1000 µg/mL (≈ 1340 µM) | MIC [1, 38]: < 1 µg/mL | MIC [1, 39]: < 1 µg/mL | MIC [1, 40]: < 1 µg/mL | MIC [1, 41]: < 1 µg/mL | MIC [1, 42]: 30 µg/mL (≈ 40.1 µM) | MIC [1, 43]: < 1 µg/mL

CC[C@H]1OC(=O)[C@H](C)[C@@H](O[C@H]2C[C@@](C)(OC)[C@@H](O)[C@H](C)O2)[C@H](C)[C@@H](O[C@@H]2O[C@H](C)C[C@H](N(C)C)[C@H]2O)[C@](C)(O)C[C@@H](C)/C(=N\OCOCCOC)[C@H](C)[C@@H](O)[C@]1(C)O [ROX, Roxithromycin]
MIC (Propionibacterium; Propionibacterium 02-7-4): 2 µg/mL (≈ 2.39 µM) | MIC (Propionibacterium; Propionibacterium 02-7-5): < 1 µg/mL | MIC (Propionibacterium; Propionibacterium 02-7-6): 250 µg/mL (≈ 299 µM) | MIC (Propionibacterium; Propionibacterium 02-7-7): 250 µg/mL (≈ 299 µM) | MIC (Propionibacterium; Propionibacterium 02-7-9): 16 µg/mL (≈ 19.1 µM) | MIC (Propionibacterium; Propionibacterium 03-2-22): 1000 µg/mL (≈ 1190 µM) | MIC (Propionibacterium; Propionibacterium 03-2-30): > 1000 µg/mL | MIC (Propionibacterium; Propionibacterium 03-2-32): 500 µg/mL (≈ 597 µM) | MIC (Propionibacterium; Propionibacterium 03-2-33): > 1000 µg/mL | MIC (Propionibacterium; Propionibacterium 03-2-36): 500 µg/mL (≈ 597 µM) | MIC (Propionibacterium; Propionibacterium 03-2-37): 1000 µg/mL (≈ 1190 µM) | MIC (Propionibacterium; Propionibacterium 03-2-39): 1000 µg/mL (≈ 1190 µM) | MIC (Serratia marcescens; [2]): 16 µg/mL (≈ 19.1 µM) | MIC (Serratia marcescens; [3]): 16 µg/mL (≈ 19.1 µM) | MIC (Serratia marcescens; [4]): 16 µg/mL (≈ 19.1 µM) | MIC (Escherichia coli; [5]): > 1000 µg/mL | MIC (Escherichia coli; [6]): > 1000 µg/mL | MIC (Escherichia coli; [7]): 250 µg/mL (≈ 299 µM) | MIC (Escherichia coli; [8]): 500 µg/mL (≈ 597 µM) | MIC (Escherichia coli; [9]): > 1000 µg/mL | MIC (Escherichia coli; [10]): 250 µg/mL (≈ 299 µM) | MIC (Escherichia coli; [11]): 250 µg/mL (≈ 299 µM) | MIC (Escherichia coli; [12]): 1000 µg/mL (≈ 1190 µM) | MIC (Escherichia coli; [13]): 250 µg/mL (≈ 299 µM) | MIC (Escherichia coli; [14]): 250 µg/mL (≈ 299 µM) | MIC (Escherichia coli; [15]): 500 µg/mL (≈ 597 µM) | MIC (Escherichia coli; Escherichia coli 03-2-59, read-out: MIC): 250 µg/mL (≈ 299 µM) | MIC (Klebsiella pneumoniae; Klebsiella pneumoniae 02-6-14): > 1000 µg/mL | MIC (Klebsiella pneumoniae; Klebsiella pneumoniae 02-6-18): 1000 µg/mL (≈ 1190 µM) | MIC (Staphylococcus aureus; Staphylococcus aureus 02-19-5): >1000 µg/mL | MIC (Staphylococcus aureus; [16]): > 1000 µg/mL | MIC (Staphylococcus aureus; [17]): >1000 µg/mL | MIC (Staphylococcus aureus; [18]): >1000 µg/mL | MIC (Staphylococcus aureus; [19]): >1000 µg/mL | MIC [1, 20]: > 1000 µg/mL | MIC [1, 21]: > 1000 µg/mL | MIC [1, 22]: < 1 µg/mL | MIC [1, 23]: < 1 µg/mL | MIC [1, 24]: 1000 µg/mL (≈ 1190 µM) | MIC [1, 25]: < 1 µg/mL | MIC [1, 26]: 125 µg/mL (≈ 149 µM) | MIC [1, 27]: > 1000 µg/mL | MIC [1, 28]: > 1000 µg/mL | MIC [1, 29]: < 1 µg/mL | MIC [1, 30]: > 1000 µg/mL | MIC [1, 31]: < 1 µg/mL | MIC [1, 32]: > 1000 µg/mL | MIC [1, 33]: > 1000 µg/mL | MIC [1, 34]: > 1000 µg/mL | MIC [1, 35]: > 1000 µg/mL | MIC [1, 36]: > 1000 µg/mL | MIC [1, 37]: 1000 µg/mL (≈ 1190 µM) | MIC [1, 38]: < 1 µg/mL | MIC [1, 39]: < 1 µg/mL | MIC [1, 40]: < 1 µg/mL | MIC [1, 41]: < 1 µg/mL | MIC [1, 42]: 500 µg/mL (≈ 597 µM) | MIC [1, 43]: < 1 µg/mL
